Experiments:
[1] = DPPH radical scavenging assay; details: mean ± SD, n = 6
[2] = ABTS cation radical decolorization assay; details: mean ± SD, n = 6
[3] = Ferric reducing antioxidant power (FRAP) assay; details: mean ± SD, n = 6
Protocol: Natural products’ ability to reduce metals is regarded as a key marker of their antioxidant properties. Spectroscopically, the quantity of ferric (Fe^3+) complex conversion to ferrous (Fe^2+) form is detected by the color change of the solution based on the compound’s ability for reduction. The increased reduction capability of the studied sample is shown by the higher absorbance of the reaction mixture. FRAP values of B. armeniaca extract and its fractions were recorded in (Table 2) and expressed as EC50 (µg/mL).
The FRAP technique was carried out in microplates with slight modifications as described by. Briefly, a fresh FRAP solution was prepared shortly before the reaction in a 10:1:1 v/v/v ratio, consisting of acetate buffer (300 mM, PH = 3.6), tripyridyltriazine (TPTZ, 10 mM) in HCl (40 mM), and FeCl3 (20 mM), respectively. […] The FRAP test measured the absorbance change generated by electron-donating antioxidants converting a colorless oxidized Fe^+3-TPTZ complex to a blue-colored Fe^+2 molecule in acidic conditions. Data are represented as mean ± SD.
FRAP assay data were determined by Microsoft Excel®. […] AChE inhibition activity was performed in triplicate. […] The difference was considered significant when p < 0.05.

[4] = parameters: method as in earlier work; details: previous research ref 5; cited from earlier work
[5] = test system: LPS-induced Alzheimer in mice; test: Y maze spontaneous alternation test in LPS-induced Alzheimer in mice; assay type: in vivo; details: LPS 250 µg/kg/day IP 7 days; compared to normal control
Protocol: Fifty male Swiss mice weighing 20–35 gm were chosen for the investigation. They were held in filter-top plastic cages under hygienic conditions, with 12-h light and 12-hour dark cycles and 50% humidity at 28 °C. Unnecessary disturbance of animals was avoided. Squeezing, pressure, and abrasive maneuvers were avoided when dealing with the animals. Throughout the experiment, mice were fed a standard pellet meal, and water was allowed ad libitum. The laboratory animal experiments were conducted to comply with the recommendations of the Guide for the Care and Use of Laboratory Animals of the National Research Centre, Egypt, and the National Institutes of Health (NIH No. 85:23 revised 1985) in accordance with the guidelines provided by the CPCSEA and the World Medical Association Declaration of Helsinki on Ethical Principles for Studies Involving Experimental Animals. […]
Y maze spontaneous alternation test was performed 24 h after the last treatment dose, according to [126]. […] One day later, the mouse was allowed eight minutes of movements while its motion was recorded. The letter of the mouse was recorded down every time it entered an arm with all of its limbs inside. […] The alternation percentage was determined using the formula below: Number of alternations/(Total arm entries −2) ∗ 100

[6] = test system: NF-κB; test: Brain content of NF-κB (ELISA) in LPS-induced Alzheimer in mice; assay type: in vivo; details: LPS 250 µg/kg/day IP 7 days; compared to normal control
Protocol: (§1) Firstly, mice were anesthetized using an IP injection of ketamine at a dose of 80–100 mg/kg. After they achieved a deep anesthetic state, mice were sacrificed by decapitation. Each mouse’s brain was promptly dissected and washed with phosphate-buffered saline (PBS) to eliminate extra blood. Weighed pieces were homogenized in PBS with the MPW-120 homogenizer, Med Instruments, Poland, to obtain a 20% homogenate, then they were kept overnight at −20 °C. […] The supernatant was removed immediately and assayed for brain contents of NF-κB, IL-1β, CYP2E1, and GFAP. They were determined using an ELISA kit (SunLong Biotec Co., Ltd., Hangzhou, China).
(§2) Standards and samples were added to wells containing immobilized antibodies specific for […] NF-κB, IL-1β, CYP2E1, and GFAP and kept for 30 min of incubation at 37 °C. After washing, horseradish peroxidase-conjugated streptavidin was added to the wells, kept for 30 min of incubation at 37 °C, and then washed for a second time. The wells were filled with tetramethylbenzidine (TMB) substrate solution and kept for 15 min of incubation at 37 °C; a color was produced in proportion to the quantity of NF-κB, IL-1β, CYP2E1, and GFAP bound. A stop solution was added to the wells to terminate the color development, and color intensity was detected at 450 nm after 10 min [130].

[7] = test system: IL-1β; test: Brain content of IL-1β (ELISA) in LPS-induced Alzheimer in mice; assay type: in vivo; details: LPS 250 µg/kg/day IP 7 days; compared to normal control
Protocol: as §1, §2

[8] = test system: CYP2E1; test: Brain content of CYP2E1 (ELISA) in LPS-induced Alzheimer in mice; assay type: in vivo; details: LPS 250 µg/kg/day IP 7 days; compared to normal control
Protocol: as §1, §2

[9] = test system: GFAP; test: Brain content of GFAP (ELISA) in LPS-induced Alzheimer in mice; assay type: in vivo; details: LPS 250 µg/kg/day IP 7 days; compared to normal control
Protocol: as §1, §2

[10] = test system: mice brain; test: Histopathological examination of mice brain (H&E); assay type: in vivo; details: LPS model, extracts 200 mg/kg/day oral 7 days
Protocol: Autopsy specimens were obtained from mice brains, divided into several groups and preserved in 10% formol saline for a day. Subsequently, rinsing with tap water, dehydration was achieved by alcohol serial dilutions (methyl, ethyl, and absolute ethyl alcohol). Samples were cleaned with xylene and immersed in paraffin for a day at 56 °C in a hot air oven. Paraffin beeswax tissue blocks were made using a sledge microtome and sectioned at a thickness of […].

With `Cc1c(C)c2c(c(C)c1O)CCC(C)(C(=O)O)O2` (centres unmarked) [Trolox] the “DPPH Assay IC50” value [1] was 24.42 ± 0.87 µg/mL, the “ABTS Assay IC50” value [2] was 22.56 ± 0.78 µg/mL and the “FRAP Assay EC50” value [3] was 96.97 ± 2.73 µg/mL.
For `O=C(O)c1cc(O)c(O)c(O)c1` [gallic acid], the “DPPH IC50” value [4] is listed as 3.6 µg/mL.
In the case of Lipopolysaccharide [LPS], the “decrease of Y-maze alteration” value [5] is reported as 58%, the “increase of NF-κB in the brain” value [6] is reported as 309% and the “increase of IL-1β in the brain” value [7] is reported as 193%. The “elevation of CYP2E1 brain content” value [8] was 235%, the “elevation of GFAP brain expression” value [9] was 276% and the histopathology of cerebellum [10] was “normal histological findings”. For the same compound, the “histopathology of cerebral cortex” value [10] was “nuclear pyknosis and neuronal degeneration with focal gliosis”, the “histopathology of fascia dentata and hilus in the hippocampus” value [10] was “nuclear pyknosis with degeneration” and the “histopathology of hippocampus subiculum” value [10] was “nuclear pyknosis and degeneration in some neurons”. The histopathology of striatum [10] was “multiple focal eosinophilic plagues formation”.
